A word on the IC50: it is the concentration that inhibits the measured activity by half.

Eleven compounds from patent publication US20170260226A1, “3-NITROGEN OR SULPHUR SUBSTITUTED OESTRA-1,3,5(10),16-TETRAENE AKR1C3 INHIBITORS” (BAYER PHARMA AKTIENGESELLSCHAFT, priority 2014, published 2017) can be followed below.

Assay [1] concerns the target T1, AKR1C3 (Homo sapiens, UniProt P42330).
T1 sequence (P42330 1-323): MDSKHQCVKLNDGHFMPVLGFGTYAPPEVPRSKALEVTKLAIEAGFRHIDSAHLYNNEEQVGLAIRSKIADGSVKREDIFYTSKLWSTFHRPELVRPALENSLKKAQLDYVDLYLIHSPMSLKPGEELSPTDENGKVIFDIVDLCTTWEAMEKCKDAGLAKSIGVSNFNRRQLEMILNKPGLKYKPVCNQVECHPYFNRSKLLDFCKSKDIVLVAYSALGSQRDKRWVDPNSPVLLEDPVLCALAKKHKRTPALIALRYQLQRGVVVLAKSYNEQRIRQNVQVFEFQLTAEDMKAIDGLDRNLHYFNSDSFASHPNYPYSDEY
The assay is described as follows: AKR1C3 inhibition in a cell-based system (HEK293 cells transfected with AKR1C3 expression plasmid, coumberon substrate). The note with it: mean values; HEK293 cells transfected with AKR1C3, coumberon 6×10^−6M, 3 h; read-out: Cellular AKR1C3 inhibition IC50. Further details: expressed in transfected cells; host or cells: HEK293 cells (ATCC). On the procedure: The inhibition of AKR1C3 by the substances described in this invention was measured in a cell-based assay using coumberon as the substrate for AKR1C3 (Halim, M., Yee, D., J., and Sames, D., J. (2008). Am Chem Soc, 130, 14123-14128 and Yee, D., J., Balsanek, V., Bauman, D., R., Penning, T., M., and Sames, D. (2006), Proc Natl Acad Sci USA 103, 13304-13309) (cf. Example 48).
The cell system used was HEK293 cells (ATCC, USA) (DMEM/F12, 10% FCS, 2 mM L-Glutamine, PSG). The cells were transfected with an AKR1C3 expression plasmid (pCMV6-AC-AKR1C3, GenBank Accession No. NM 003739.4), harvested after 24 hours and subsequently frozen. For assays, the frozen cells were thawed in assay medium (DMEM/F12 w/o phenolred, 0.005% Tween, 10% FCS, 2 mM L-Glutamine, PSG). Cells were seeded at 2500 cells/well into 384-well low volume or 1536-well plates (Greiner Bio-One, Frickenhausen, Germany) that contained 40-50 nl of a 100 fold concentrated compound solution in DMSO. After incubation at room temperature for 15 minutes, coumberon in PBS was added to a final concentration of 6×10^−6M. Following a 3 h incubation at room temperature, the reaction was stopped by lysing the cells with 0.4% Triton X-100. Coumberol fluorescence intensity was measured at 520 nm (excitation 380 nm) with a suitable measuring instrument (Pherastar, BMG). […] The data were normalized (transfected cells+coumberon=0% inhibition; no cells+coumberone=100% inhibition). Substances were usually tested at 11 different concentrations on the same microtiter plate in a range between 96.8 pM to 20 μM (20 μM, 5.9 μM, 1.7 μM, 0.5 μM, 0.15 μM, 44 nM, 12.9 nM, 3.8 nM, 1.1 nM, 0.3 nM and 96.8 pM). The dilutions were carried out on a 100 fold concentrated solution by serial dilution in duplicates. From the obtained data IC50 values were calculated by a 4-parameter fit.

Assay [2] deals with T1, AKR1C3. Nature of the assay: AKR1C3 enzyme inhibition assay (coumberone to coumberol fluorescence). To be noted: mean values; 10 μM NADPH, 0.3 μM coumberone, 3 h at room temperature. Further details: GST (cleaved yes); made in house; host or cells: E. coli. In kind it is biochemical. On the procedure:
The AKR1C3-inhibitory action of the substances of this invention was measured in the AKR1C3 assay described in the paragraphs which follow.
Essentially, the enzyme activity is measured by quantifying the coumberol formed from coumberone (Halim, M., Yee, D., J., and Sames, D., J. A., M. (2008). Chem Soc 130, 14123-14128 and Yee, D., J., Balsanek, V., Bauman, D., R., Penning, T., M., and Sames, D. (2006). Proc Natl Acad Sci USA, 103, 13304-13309). In this assay, the increase in the highly fluorescent coumberol can be determined by NADPH (nicotinamide adenine dinucleotide phosphate)-dependent reduction of the nonfluorescent coumberone by AKR1C3.
The enzyme used was recombinant human AKR1C3 (aldo-keto reductase family 1 member C3) (GenBank Accession No. NM_003739). This was expressed as the GST (glutathione S-transferase) fusion protein in E. coli and purified by means of glutathione-Sepharose affinity chromatography. The GST was removed by thrombin digestion with subsequent size exclusion chromatography (Dufort, I., Rheault, P., Huang, X., F., Soucy, P., and Luu-The, V. (1999). Endocrinology,140, 568-574).
For the assay, 40-50 nl of a 100-fold concentrated solution of the test substance in DMSO were pipetted into a black low-volume 384-well microtitre plate (Greiner Bio-One, Frickenhausen, Germany), 2-2.5 μl of a solution of AKR1C3 in assay buffer [50 mM potassium phosphate buffer pH 7, 1 mM DTT, 0.0022% (w/v) Pluronic F-127, 0.01% BSA (w/v) and protease inhibitor cocktail (complete, EDTA-free Protease Inhibitor Cocktail from Roche)] were added and the mixture was incubated for 20 min, in order to enable preliminary binding of the substances to the enzyme prior to the enzyme reaction. Then the enzyme reaction was started by adding 2-2.5 μl of a solution of NADPH and coumberone in assay buffer (final assay concentration was 10 μM NADPH and 0.3 μM coumberone) and the resulting mixture was incubated at room temperature for 3 h. Typical concentrations were depending on the linear range of the enzyme reaction during the reaction time about 1 nM. The reaction was stopped by adding 2 μl of a stop solution consisting of the AKR1C3 inhibitor EM-1404 to a final concentration of 1 μM. Subsequently, the fluorescence of coumberol was measured at 520 nm (excitation at 380 nm) with a suitable measuring instrument (Pherastar, BMG). […] The data were normalized (enzyme+coumberon substrate in assay buffer=0% inhibition; coumberone substrate only in assay buffer=100% inhibition). Substances were usually tested at 11 different concentrations on the same microtiter plate in a range between 96.8 pM to 20 μM (20 μM, 5.9 μM, 1.7 μM, 0.5 μM, 0.15 μM, 44 nM, 12.9 nM, 3.8 nM, 1.1 nM, 0.3 nM and 96.8 pM). The dilutions were carried out on a 100 fold concentrated solution by serial dilution in duplicates. From the obtained data IC50 values were calculated by a 4-parameter fit.

Turning to `C[C@]12CC[C@@H]3c4ccc(S(=O)(=O)CCCC(=O)O)cc4CC[C@H]3[C@@H]1CC=C2c1cccnc1` [Example 12, 4-{[17-(pyridin-3-yl)estra-1(10),2,4,16-tetraen-3-yl]sulfonyl}butanoic acid], the results for the IC50 at AKR1C3 [1] and against AKR1C3 [2] were 700 nM and 12 nM, respectively.

`C[C@]12CC[C@@H]3c4ccc(NC(=O)CCc5nn[nH]n5)cc4CC[C@H]3[C@@H]1CC=C2c1cncc(F)c1` [Example 32, N-[17-(5-fluoropyridin-3-yl)estra-1(10),2,4,16-tetraen-3-yl]-3-(2H-tetrazol-5-yl)propanamide]: the values for the concentration for half-maximal inhibition (IC50) at AKR1C3 [1] and against AKR1C3 [2] were 2170 nM and 11.8 nM, respectively.

In the case of `C[C@]12CC[C@@H]3c4ccc(S(=O)(=O)CCCC(=O)O)cc4CC[C@H]3[C@@H]1CC=C2c1cncc(C(F)(F)F)c1` [Example 14, 4-({17-[5-(trifluoromethyl)pyridin-3-yl]estra-1(10),2,4,16-tetraen-3-yl}sulfonyl)butanoic acid], the values for the IC50 on AKR1C3 [1] and on AKR1C3 [2] were 490 nM and 14.3 nM, respectively.

On to `C[C@]12CC[C@@H]3c4ccc(S(=O)(=O)CCCC(N)=O)cc4CC[C@H]3[C@@H]1CC=C2c1cncc(F)c1` [Example 20, 4-{[17-(5-fluoropyridin-3-yl)estra-1(10),2,4,16-tetraen-3-yl]sulfonyl}butanamide], for which the IC50 amounted to 30 nM on AKR1C3 [1] and 3.2 nM on AKR1C3 [2].

Turning to `C[C@]12CC[C@@H]3c4ccc(NC(=O)CCC(=O)O)cc4CC[C@H]3[C@@H]1CC=C2c1cncc(F)c1` [Example 23, 4-{[17-(5-fluoropyridin-3-yl)estra-1(10),2,4,16-tetraen-3-yl]amino}-4-oxobutanoic acid], the IC50 on AKR1C3 [1] was found to be 780 nM; against AKR1C3 [2] it was 3.8 nM.

Consider `C[C@]12CC[C@@H]3c4ccc(S(=O)(=O)CCCC(=O)O)cc4CC[C@H]3[C@@H]1CC=C2c1cncc(F)c1` [Example 10, 4-{[17-(5-fluoropyridin-3-yl)estra-1(10),2,4,16-tetraen-3-yl]sulfonyl}butanoic acid], for which the IC50 on AKR1C3 [1] amounted to 490 nM; on AKR1C3 [2], 2.9 nM.

As to `COc1cncc(C2=CC[C@H]3[C@@H]4CCc5cc(S(=O)(=O)CCCC(=O)O)ccc5[C@H]4CC[C@]23C)c1` [Example 16, 4-{[17-(5-methoxypyridin-3-yl)estra-1,3,5(10),16-tetraen-3-yl]sulfonyl}butanoic acid], the IC50 at AKR1C3 [1] stood at 540 nM; on AKR1C3 [2], 9.7 nM.

Take `CN(CCCC(=O)O)c1ccc2c(c1)CC[C@@H]1[C@@H]2CC[C@]2(C)C(c3cncc(F)c3)=CC[C@@H]12` [Example 44, 4-{[17-(5-fluoropyridin-3-yl)estra-1(10),2,4,16-tetraen-3-yl](methyl)amino}butanoic acid]: the IC50 on AKR1C3 [1] amounted to 1120 nM; on AKR1C3 [2], 18.5 nM.

On to `CN(CCCO)S(=O)(=O)c1ccc2c(c1)CC[C@@H]1[C@@H]2CC[C@]2(C)C(c3cncc(F)c3)=CC[C@@H]12` [Example 03, 17-(5-fluoropyridin-3-yl)-N-(3-hydroxypropyl)-N-methylestra-1(10),2,4,16-tetraene-3-sulfonamide], for which the IC50 came out at 50 nM at AKR1C3 [1] and 2.4 nM at AKR1C3 [2].

Consider `CC(=O)NS(=O)(=O)CCC(=O)Nc1ccc2c(c1)CC[C@@H]1[C@@H]2CC[C@]2(C)C(c3cncc(F)c3)=CC[C@@H]12` [Example 29, 3-(acetylsulfamoyl)-N-[17-(5-fluoropyridin-3-yl)estra-1(10),2,4,16-tetraen-3-yl]propanamide], for which the 50% inhibitory concentration (IC50) at AKR1C3 [1] is 5000 nM; at AKR1C3 [2], 3.2 nM.

In the case of `COC(=O)CCCS(=O)(=O)c1ccc2c(c1)CC[C@@H]1[C@@H]2CC[C@]2(C)C(c3cncc(F)c3)=CC[C@@H]12` [Example 09, methyl 4-{[17-(5-fluoropyridin-3-yl)estra-1(10),2,4,16-tetraen-3-yl]sulfonyl}butanoate], the values for the half-inhibitory concentration (IC50) on AKR1C3 [1] and at AKR1C3 [2] were 50 nM and 7.7 nM, respectively.
